Results on 17 compounds are retold here after ChEMBL document CHEMBL4368868, “Selected aryl thiosemicarbazones as a new class of multi-targeted monoamine oxidase inhibitors” (Medchemcomm, 2018).

For series [1], the target named is T1, Amine oxidase [flavin-containing] A (Homo sapiens, UniProt P21397).
T1 sequence (P21397 whole entry): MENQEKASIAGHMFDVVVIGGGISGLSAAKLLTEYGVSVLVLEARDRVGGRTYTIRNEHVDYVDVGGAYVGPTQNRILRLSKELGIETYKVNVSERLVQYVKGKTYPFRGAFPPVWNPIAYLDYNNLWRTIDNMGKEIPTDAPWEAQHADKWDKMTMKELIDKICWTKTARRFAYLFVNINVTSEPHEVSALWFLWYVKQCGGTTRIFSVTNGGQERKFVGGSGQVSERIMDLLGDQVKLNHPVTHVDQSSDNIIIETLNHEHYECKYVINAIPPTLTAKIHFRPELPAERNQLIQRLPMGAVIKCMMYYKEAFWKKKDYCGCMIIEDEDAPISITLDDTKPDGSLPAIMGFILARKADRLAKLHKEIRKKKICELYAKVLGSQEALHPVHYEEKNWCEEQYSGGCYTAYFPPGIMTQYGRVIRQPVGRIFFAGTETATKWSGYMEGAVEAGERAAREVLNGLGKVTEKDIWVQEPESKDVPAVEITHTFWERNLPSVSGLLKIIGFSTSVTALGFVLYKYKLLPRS
In words: Inhibition of MAOA (unknown origin) assessed as residual activity at 10 uM using kynuramine as substrate preincubated for 30 mins followed by substrate addition relative to control. Conditions: read-out: Activity.

In series [2] the target is T2, Amine oxidase [flavin-containing] B (Homo sapiens, UniProt P27338).
T2 sequence (P27338 whole entry): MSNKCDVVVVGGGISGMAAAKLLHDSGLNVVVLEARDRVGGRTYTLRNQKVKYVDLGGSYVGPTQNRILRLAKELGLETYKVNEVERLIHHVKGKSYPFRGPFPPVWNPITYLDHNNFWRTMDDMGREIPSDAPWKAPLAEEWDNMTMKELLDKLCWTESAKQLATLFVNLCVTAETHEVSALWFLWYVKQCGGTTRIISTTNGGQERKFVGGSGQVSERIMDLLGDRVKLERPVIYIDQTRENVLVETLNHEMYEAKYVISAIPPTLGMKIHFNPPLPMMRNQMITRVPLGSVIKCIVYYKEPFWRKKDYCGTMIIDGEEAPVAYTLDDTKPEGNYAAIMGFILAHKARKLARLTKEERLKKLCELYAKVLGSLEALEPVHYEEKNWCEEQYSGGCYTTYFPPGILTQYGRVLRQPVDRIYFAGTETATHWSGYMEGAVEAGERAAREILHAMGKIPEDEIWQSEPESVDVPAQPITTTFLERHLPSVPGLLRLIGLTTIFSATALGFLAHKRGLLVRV
Kind of series: Competitive inhibition of MAOB (unknown origin) using varying levels of benzylamine as substrate preincubated for 15 mins followed by substrate addition and measured by Lineweaver-burk plot analysis.

For series [3], the target named is T2, Amine oxidase [flavin-containing] B. Kind of series: Reversible inhibition of MAOB (unknown origin) assessed as residual enzyme activity at 0.54 uM using benzylamine as substrate measured after 30 mins relative to control. Conditions: 0.5 h, read-out: Activity.
The target in the next series is Acetylcholinesterase (Electrophorus electricus, UniProt O42275).
Series [4] addresses T2, Amine oxidase [flavin-containing] B. Kind of series: Reversible inhibition of MAOB (unknown origin) assessed as residual enzyme activity at 0.54 uM using benzylamine as substrate pre-incubated for 30 mins followed by dialysis with pH 7.2 sodium phosphate buffer relative to control. Conditions: read-out: Activity.
Series [5] in a line: Permeability of the compound in PBS/EtOH at 100 ug/ml incubated for 16 hrs by PAMPA. It counts as ADME. The following applies: read-out: permeability. A general note: The PAMPA barrier holds no transporters, so it reflects passive diffusion.
The target in series [6] is T1, Amine oxidase [flavin-containing] A.
For series [7], the target named is T2, Amine oxidase [flavin-containing] B. In words: Inhibition of MAOB (unknown origin) assessed as residual activity at 10 uM using benzylamine as substrate preincubated for 30 mins followed by substrate addition relative to control. The following applies: read-out: Activity.
The species named for a further series is Homo sapiens. In words: Selectivity index, ratio of IC50 for MAOA (unknown origin) to IC50 for MAOB (unknown origin).
The target in series [8] is T2, Amine oxidase [flavin-containing] B.
Series [9] deals with T1, Amine oxidase [flavin-containing] A. Kind of series: Reversible inhibition of MAOA (unknown origin) assessed as residual enzyme activity at 3.6 uM using kynuramine as substrate measured after 30 mins relative to control. Conditions: 0.5 h, read-out: Activity.
Series [10] has the same target. In words: Competitive inhibition of MAOA (unknown origin) using varying levels of kynuramine as substrate preincubated for 15 mins followed by substrate addition and measured by Lineweaver-burk plot analysis.
Series [11] shares this target. In words: Reversible inhibition of MAOA (unknown origin) assessed as residual enzyme activity at 3.6 uM using kynuramine as substrate pre-incubated for 30 mins followed by dialysis with pH 7.2 sodium phosphate buffer relative to control. Conditions: read-out: Activity.
Series [12] shares this target. In words: Reversible inhibition of MAOA (unknown origin) assessed as residual enzyme activity at 2 uM using kynuramine as substrate measured after 30 mins relative to control. Conditions: 0.5 h, read-out: Activity.
For series [13] the target is unchanged. Kind of series: Reversible inhibition of MAOA (unknown origin) assessed as residual enzyme activity at 2 uM using kynuramine as substrate pre-incubated for 30 mins followed by dialysis with pH 7.2 sodium phosphate buffer relative to control. Conditions: read-out: Activity.
Series [14] shares this target. In words: Irreversible inhibition of MAOA (unknown origin) assessed as residual enzyme activity at 0.014 uM using kynuramine as substrate pre-incubated for 30 mins followed by dialysis with pH 7.2 sodium phosphate buffer relative to control. The following applies: read-out: Activity.
Series [15] has the same target. Kind of series: Irreversible inhibition of MAOA (unknown origin) assessed as residual enzyme activity at 0.014 uM using kynuramine as substrate measured after 30 mins relative to control. Conditions: 0.5 h, read-out: Activity.
Series [16] has as its target T2, Amine oxidase [flavin-containing] B. Kind of series: Reversible inhibition of MAOB (unknown origin) assessed as residual enzyme activity at 0.08 uM using benzylamine as substrate pre-incubated for 30 mins followed by dialysis with pH 7.2 sodium phosphate buffer relative to control. The following applies: read-out: Activity.
The target is the same in series [17]. Kind of series: Reversible inhibition of MAOB (unknown origin) assessed as residual enzyme activity at 0.08 uM using benzylamine as substrate measured after 30 mins relative to control. The following applies: 0.5 h, read-out: Activity.
For series [18] the target is unchanged. Conditions: 0.5 h.

Sequence of Acetylcholinesterase (O42275 whole entry): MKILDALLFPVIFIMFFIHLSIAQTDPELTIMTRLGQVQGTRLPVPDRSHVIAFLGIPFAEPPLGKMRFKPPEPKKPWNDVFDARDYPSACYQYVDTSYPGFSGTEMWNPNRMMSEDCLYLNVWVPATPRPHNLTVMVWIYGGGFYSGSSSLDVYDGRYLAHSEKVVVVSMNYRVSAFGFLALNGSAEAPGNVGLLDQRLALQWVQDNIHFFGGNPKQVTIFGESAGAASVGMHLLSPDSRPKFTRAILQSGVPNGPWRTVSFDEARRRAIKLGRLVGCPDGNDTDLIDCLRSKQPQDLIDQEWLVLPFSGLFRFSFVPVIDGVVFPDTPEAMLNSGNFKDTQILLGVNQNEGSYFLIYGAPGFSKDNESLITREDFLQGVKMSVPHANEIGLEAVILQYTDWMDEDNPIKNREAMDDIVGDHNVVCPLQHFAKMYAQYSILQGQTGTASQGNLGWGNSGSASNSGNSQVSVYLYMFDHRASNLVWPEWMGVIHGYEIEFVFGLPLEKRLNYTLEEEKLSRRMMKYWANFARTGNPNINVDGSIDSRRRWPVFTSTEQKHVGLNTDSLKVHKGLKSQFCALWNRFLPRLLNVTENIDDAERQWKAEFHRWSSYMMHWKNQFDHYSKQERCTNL

As a reminder, the Ki is a measure of affinity in units of concentration, obtained from inhibition or displacement. High values mean weaker binding, low ones tighter binding. The IC50 is the concentration that inhibits the measured activity by half. Turning to `NC(=S)N/N=C/c1cccc(F)c1`, the activity at 10 µM was 75.5% in series [1] and 3% in [7]. Besides, in [2], the affinity corresponds to a Ki of 0.12 µM. Besides, the activity at 0.54 µM amounted to 27.4% in series [3] and 81% in [4]. Besides, the results for the IC50 (at Acetylcholinesterase; in series [6]; in series [8]) were 26.6 µM, more than 10 µM and 0.27 µM, respectively. The Papp at 16 h, 100 ug/ml in [5] was 13.1 ×10⁻⁶ cm/s. Also, the Ratio IC50 in the series filed under Homo sapiens was more than 37.
As to `CN(C)c1ccc(/C=N/NC(N)=S)cc1`, the activity at 3.6 µM in [9] stood at 34.7%; in series [11] it was 70.3%. This compound gave a Ki in series [10] of 0.97 µM. Further, the figures for the activity at 10 µM in [1] and in series [7] were 16.5% and 82.3%, respectively. The IC50 against Acetylcholinesterase was 35.3 µM; in series [6], 1.82 µM; in series [8], more than 10 µM. In addition, the Papp at 16 h, 100 ug/ml in series [5] is 10.1 ×10⁻⁶ cm/s.
Take `NC(=S)N/N=C/c1ccccc1F`: the activity at 10 µM is 77.5% in series [1] and 33.5% in series [7]. For the same compound, the IC50 is 30.8 µM at Acetylcholinesterase, more than 10 µM in series [6] and 7.61 µM in series [8]. Also, the Papp at 16 h, 100 ug/ml in [5] turned out to be 10.3 ×10⁻⁶ cm/s. In addition, the Ratio IC50 in the series filed under Homo sapiens was more than 1.31.
Regarding `Cc1cccc(N2CC(CO)OC2=O)c1` (stereo not given) [TOLOXATONE], the activity at 2 µM came out at 30.7% in series [12] and 74% in series [13].
As to `NC(=S)N/N=C/c1ccc(F)cc1`, the activity at 10 µM in series [1] worked out at 84.5%; in series [7], 86.5%. Also, the IC50 on Acetylcholinesterase was 37.9 µM; in [6] it was more than 10 µM; in series [8], more than 10 µM.
In the case of `N=C(S)N/N=C/c1ccc(C(F)(F)F)cc1`, the activity at 10 µM turned out to be 92.5% in series [1] and 77.5% in [7]. The IC50 at Acetylcholinesterase is 36.2 µM; in series [6] it was more than 10 µM; in [8] it was more than 10 µM.
As to `C#CCN(C)CCCOc1ccc(Cl)cc1Cl` [CLORGILINE], the figures for the activity at 0.014 µM in series [14] and in series [15] were 19.8% and 21.4%, respectively.
For `NCCNC(=O)c1ccc(Cl)cn1` [LAZABEMIDE], the figures for the activity at 0.08 µM in [16] and in [17] were 86.9% and 29.5%, respectively. Also, the IC50 in series [6] was more than 80 µM.
For the compound `COc1ccc(/C=N/NC(N)=S)cc1`, the figures for the activity at 10 µM in series [1] and in [7] were 37.5% and 82.1%, respectively. The figures for the IC50 (against Acetylcholinesterase; in series [6]; in series [8]) were 36.1 µM, 4.99 µM and more than 10 µM, respectively. Besides, in series [5], the Papp at 16 h, 100 ug/ml turned out to be 11.2 ×10⁻⁶ cm/s. Further, the Ratio IC50 in the series filed under Homo sapiens was less than 0.5.
For `NC(=S)N/N=C/c1ccc(Br)cc1`, the figures for the activity at 10 µM in series [1] and in [7] were 59.5% and 82.5%, respectively. Also, the 50% inhibitory concentration (IC50) is 31.1 µM against Acetylcholinesterase, more than 10 µM in series [6] and more than 10 µM in series [8].
In the case of `NC(=S)N/N=C/c1ccccc1` [PHENYLTHIOSEMICARBAZONE], the activity at 10 µM in series [1] was determined as 83.5%; in series [7] it was 75.5%. Further, the IC50 on Acetylcholinesterase is more than 40 µM; in series [6], more than 10 µM; in series [8], more than 10 µM.
Turning to `C#CCN(C)Cc1ccccc1` [PARGYLINE], the activity at 0.2 µM in [18] is 27.9%.
`NC(=S)N/N=C/c1ccc(O)cc1`: the activity at 10 µM in [1] came to 66%; in series [7], 87.5%. The IC50 against Acetylcholinesterase is more than 40 µM; in series [6], more than 10 µM; in [8] it was more than 10 µM.
As for `NC(=S)N/N=C/c1ccc(Cl)cc1`, the activity at 10 µM in [1] turned out to be 76%; in series [7] it was 60.5%. Also, the IC50 was more than 40 µM on Acetylcholinesterase, more than 10 µM in series [6] and more than 10 µM in series [8].
For `Cc1ccc(/C=N/NC(N)=S)cc1`, the activity at 10 µM in series [1] was found to be 56.5%; in series [7], 91.5%. Besides, the figures for the IC50 (against Acetylcholinesterase; in series [6]; in series [8]) were more than 40 µM, more than 10 µM and more than 10 µM, respectively.
As to `CCc1ccc(/C=N/NC(N)=S)cc1`, the activity at 10 µM in series [1] is 36%; in [7], 86.2%. The IC50 against Acetylcholinesterase is 26.7 µM; in series [6], 5.98 µM; in series [8] it was more than 10 µM. Further, the Papp at 16 h, 100 ug/ml in [5] amounted to 9.44 ×10⁻⁶ cm/s. In addition, in the series listed under Homo sapiens, the Ratio IC50 was less than 0.6.
Take `N/C(S)=N/N=C/c1ccc([N+](=O)[O-])cc1`: the activity at 10 µM in [1] was found to be 75.5%; in series [7] it was 7.5%. Further, the values for the IC50 (against Acetylcholinesterase; in series [6]; in [8]) were 15.6 µM, more than 10 µM and 1.43 µM, respectively. In addition, the Papp at 16 h, 100 ug/ml in series [5] came to 12.8 ×10⁻⁶ cm/s. Besides, in the series filed under Homo sapiens, the Ratio IC50 is more than 6.99.
